Experimental data: patent publication US8541462B2, “Tetrahydrocarbazole derivatives as ligands of G-protein coupled receptors” (AEterna Zentaris GmbH, priority 2007, dated 2013)

assay: Metabolic stability testing in liver microsomes; type: in vitro ADME; details: mixed-gender human liver microsomes, 1 mg microsomal protein/mL, initial concentration 10 μM, 60 minutes at 37° C.; WO 2006/005484-substance 7 = 100%
Protocol: Subcellular fractions of different tissues can be prepared easily by ultracentrifugation. Most commonly these are prepared from the liver of animals and human donors to gain information about the potential hepatic clearance of compounds (first-pass elimination of drugs). Human or animal (e.g. dog, mouse, rat) subcellular fraction like liver microsomes, or possibly the fraction called S9 have therefore become a very commonly and widely used as an in vitro model to investigate mainly cytochrome P450 dependent phase I (but also phase II) metabolism that takes place in the liver.
In order to reflect the standard proportion of the enzymes in human and animal livers, liver microsomes are usually pooled from a number of […] of the same sex (or mixed-gender). By supplementing the liver microsomes with relevant cofactors and other components it is possible to investigate and distinguish between CYPs, flavin-containing monooxygenase (FMO) and UDP-glucuronosyltransferase (UGT) activities.
Selected compounds of the invention were tested for their stability in mixed-gender human liver microsomes and compared to pertinent prior art compounds.
Under the test conditions applied (1 mg microsomal protein/mL, initial concentration of 10 μM, and incubation for 60 minutes at 37° C.) the following normalized results were obtained.

| Normalized microsomal stability [%] | SMILES |
| --- | --- |
| 611 | CCC(C)[C@H](NC(=O)Cc1ccccc1F)C(=O)N[C@]1(C(=O)N[C@H](C(=S)NCCN2CCOCC2)C(C)CC)CCc2[nH]c3c(C(F)(F)F)cccc3c2C1 (stereo partly drawn) [Compound 54, (R)-3-{(S)-2-[2-(2-Fluoro-phenyl)-acetylamino]-3-methyl-pentanoylamino}-8-trifluoromethyl-2,3,4,9-tetrahydro-1H-carbazole-3-carboxylic acid [(S)-2-methyl-1-(2-morpholin-4-yl-ethylthiocarbamoyl)-butyl]-amide] |
| 624 | CCC(C)[C@H](NC(=O)Cc1ccccc1F)C(=O)N[C@]1(C(=O)N[C@H](C(=O)NC2CCC(O)CC2)C(C)CC)CCc2[nH]c3c(C(F)(F)F)cccc3c2C1 (stereo partly drawn) [Compound 73, (R)-3-{(S)-2-[2-(2-Fluoro-phenyl)-acetylamino]-3-methyl-pentanoylamino}-8-trifluoromethyl-2,3,4,9-tetrahydro-1H-carbazole-3-carboxylic acid [(S)-1-(4-hydroxy-cyclohexylcarbamoyl)-2-methyl-butyl]-amide] |
| 537 | CCC(C)[C@H](NC(=O)Cc1ccccc1F)C(=O)N[C@]1(C(=O)N[C@H](C(=S)NCCCCn2cncn2)C(C)CC)CCc2[nH]c3c(C(F)(F)F)cccc3c2C1 (stereo partly drawn) [compound 114, (R)-3-{(S)-2-[2-(2-Fluoro-phenyl)-acetylamino]-3-methyl-pentanoylamino}-8-trifluoromethyl-2,3,4,9-tetrahydro-1H-carbazole-3-carboxylic acid [(S)-2-methyl-1-1(4-[1,2,4]triazol-1-ylbutylthiocarbamoyl)-butyl]-amide] |
| 274 | CCNC(=O)NC[C@@H](NC(=O)[C@@]1(NC(=O)[C@@H](NC(=O)Cc2ccccc2F)C(C)CC)CCc2[nH]c3c(C(F)(F)F)cccc3c2C1)C(C)CC (stereo partly drawn) [compound 167, (R)-3-{(S)-2-[2-(2-Fluoro-phenyl)-acetylamino]-3-methyl-pentanoylamino}-8-trifluoromethyl-2,3,4,9-tetrahydro-1H-carbazole-3-carboxylic acid {(S)-1-[(3-ethyl-ureido)-methyl]-2-methyl-butyl}-amide] |
| 1350 | CCC(C)[C@H](NC(=O)Cc1ccccc1F)C(=O)N[C@]1(C(=O)N[C@H](C(=O)NCc2cncnc2)C(C)CC)CCc2[nH]c3c(C(F)(F)F)cccc3c2C1 (some centres unmarked) [compound 183] |
| 1259 | CCC(C)[C@H](NC(=O)Cc1ccccc1F)C(=O)N[C@]1(C(=O)N[C@H](C(=O)NCCCn2c[n+](C(C)(C)C)nn2)C(C)CC)CCc2[nH]c3c(C(F)(F)F)cccc3c2C1.O=C([O-])C(F)(F)F (stereo partly drawn) [compound 188, 1-tert-butyl-4-(3-{(S)-2-[((R)-3-{(S)-2-[2-(2-fluoro-phenyl)-acetylamino]-3-methyl-pentanoylamino}-8-trifluoromethyl-2,3,4,9-tetrahydro-1H-carbazole-3-carbonyl)-amino]-3-methyl-pentanoylamino}-propyl)-4H-tetrazol-1-ium; Trifluoro-acetate] |
| 665 | CCC(C)[C@H](NC(=O)Cc1ccccc1F)C(=O)N[C@]1(C(=O)N[C@H](CNC(=O)NCc2ccncc2)C(C)CC)CCc2[nH]c3c(C(F)(F)F)cccc3c2C1 (stereo partly drawn) [compound 190, (R)-3-{(S)-2-[2-(2-Fluoro-phenyl)-acetylamino]-3-methyl-pentanoylamino}-8-trifluoromethyl-2,3,4,9-tetrahydro-1H-carbazole-3-carboxylic acid [(S)-2-methyl-1-(3-pyridin-4-ylmethyl-ureidomethyl)-butyl]-amide] |

Second part, the compound before the results:

| SMILES | Normalized microsomal stability [%] |
| --- | --- |
| CCOC(=O)c1csc(C(NC(=O)[C@@]2(NC(=O)[C@@H](NC(=O)Cc3ccccc3F)[C@@H](C)CC)CCc3[nH]c4c(C(F)(F)F)cccc4c3C2)[C@@H](C)CC)n1 (stereo in doubt) [compound 251, 2-{(1R,2S)-1-[((R)-3-{(2S,3S)-2-[2-(2-Fluoro-phenyl)-acetylamino]-3-methyl-pentanoylamino}-8-trifluoromethyl-2,3,4,9-tetrahydro-1H-carbazole-3-carbonyl)-amino]-2-methyl-butyl}-thiazole-4-carboxylic acid ethyl ester] | 1033 |
| CCNC(=O)Nc1nnc([C@@H](NC(=O)[C@]2(NC(=O)[C@@H](NC(=O)Cc3ccccc3F)C(C)CC)CCc3[nH]c4c(C(F)(F)F)cccc4c3C2)C(C)CC)o1 (stereo partly drawn) [Compound 31, (S)-3-{(S)-2-[2-(2-Fluoro-phenyl)-acetylamino]-3-methyl-pentanoylamino}-8-trifluoromethyl-2,3,4,9-tetrahydro-1H-carbazole-3-carboxylic acid {(S)-1-[5-(3-ethyl-ureido)-[1,3,4]oxadiazol-2-yl]-2-methyl-butyl}-amide] | 276 |
| CCC(C)[C@H](NC(=O)Cc1ccccc1F)C(=O)N[C@]1(C(=O)N[C@H](C(=O)NCN2CCOCC2)C(C)CC)CCc2[nH]c3c(C(F)(F)F)cccc3c2C1 (some centres unmarked) [Compound 36] | 774 |
| CCC(C)[C@H](NC(=O)Cc1ccccc1F)C(=O)N[C@]1(C(=O)N[C@H](C(=O)Nc2ccc3ncccc3c2)C(C)CC)CCc2[nH]c3c(C(F)(F)F)cccc3c2C1 (stereo partly drawn) [compound 137, (R)-3-{(S)-2-[2-(2-Fluoro-phenyl)-acetylamino]-3-methyl-pentanoylamino}-8-trifluoromethyl-2,3,4,9-tetrahydro-1H-carbazole-3-carboxylic acid [(S)-2-methyl-1-(quinolin-6-ylcarbamoyl)-butyl]-amide] | 1296 |
| CCC(C)[C@H](NC(=O)Cc1ccccc1F)C(=O)N[C@]1(C(=O)N[C@H](C(=O)NNc2ccccc2)C(C)CC)CCc2[nH]c3c(C(F)(F)F)cccc3c2C1 (stereo partly drawn) [compound 144, (R)-3-{(S)-2-[2-(2-Fluoro-phenyl)-acetylamino]-3-methyl-pentanoylamino}-8-trifluoromethyl-2,3,4,9-tetrahydro-1H-carbazole-3-carboxylic acid [(S)-2-methyl-1-(N′-phenyl-hydrazinocarbonyl)-butyl]-amide] | 1352 |
| CCC(C)[C@H](NC(=O)Cc1ccccc1F)C(=O)N[C@]1(C(=O)N[C@H](C(=O)NNC(N)=O)C(C)CC)CCc2[nH]c3c(C(F)(F)F)cccc3c2C1 (stereo partly drawn) [compound 164, (R)-3-{(S)-2-[2-(2-Fluoro-phenyl)-acetylamino]-3-methyl-pentanoylamino}-8-trifluoromethyl-2,3,4,9-tetrahydro-1H-carbazole-3-carboxylic acid [(S)-1-(N′-aminocarbonyl-hydrazinocarbonyl)-2-methyl-butyl]-amide] | 1230 |
| CCNC(=S)NC[C@@H](NC(=O)[C@@]1(NC(=O)[C@@H](NC(=O)Cc2ccccc2F)C(C)CC)CCc2[nH]c3c(C(F)(F)F)cccc3c2C1)C(C)CC (stereo partly drawn) [compound 173, (R)-3-{(S)-2-[2-(2-Fluoro-phenyl)-acetylamino]-3-methyl-pentanoylamino}-8-trifluoromethyl-2,3,4,9-tetrahydro-1H-carbazole-3-carboxylic acid {(S)-1-[(3-ethyl-thioureido)-methyl]-2-methyl-butyl}-amide] | 285 |
